Measurements published in patent US20090325902A1, “HETEROCYCLIC UREA DERIVATIVES AND METHODS OF USE THEREOF” (ASTRAZENECA AB, priority 2008, published 2009).
≈ marks a conversion by molar mass, not a printed value.

Experiments:
E. coli GyrB ATPase = E. coli GyrB ATPase (Escherichia coli, UniProt P0AES6); assay: E. coli GyrB ATPase inhibition (ammonium molybdate/malachite green phosphate detection); assay type: biochemical
Method: E. coli GyrB ATPase Inhibition Activity: Compounds can be tested for inhibition of E. coli GyrB ATPase activity using an ammonium molybdate/malachite green-based phosphate detection assay (Lanzetta, P. A., L. J. Alvarez, P. S. Reinach, and O. A. Candia, 1979, 100: 95-97). Assays can be performed in multiwell plates in 30 μl reactions containing: 50 mM Hepes buffer pH 7.5, 75 mM ammonium acetate, 8.0 mM magnesium chloride, 0.5 mM ethylenediaminetetraacetic acid, 5% glycerol, 1 mM 1,4-Dithio-DL-threitol, 200 nM bovine serum albumin, 1.6 μg/ml sheared salmon sperm DNA, 400 pM E. coli GyrA, 400 pM E. coli GyrB, 250 μM ATP, and compound in dimethylsulfoxide. Reactions can be quenched with 30 μl of ammonium molybdate/malachite green detection reagent containing 1.2 mM malachite green hydrochloride, 8.5 mM ammonium molybdate tetrahydrate, and 1 M hydrochloric acid. Plates can be read in an absorbance plate reader at 650 nm and percent inhibition values are calculated using dimethylsulfoxide (2%)-containing reactions as 0% inhibition and EDTA-containing (2.4 μM) reactions as 100% inhibition controls. An IC50 measurement of compound potency for each compound can be determined from reactions performed in the presence of 10 different compound concentrations.

[1] = biological target: E. coli Topoisomerase IV ATPase (Escherichia coli, UniProt P20083); assay: E. coli Topoisomerase IV ATPase inhibition; assay type: biochemical
Method: E. coli Topoisomerase IV ATPase Inhibition Activity: Compounds can be tested for inhibition of E. coli topoisomerase IV ATPase activity as described above for E. coli GyrB except the 30 μl reactions contained the following: 20 mM TRIS buffer pH 8, 50 mM ammonium acetate, 8 mM magnesium chloride, 5% glycerol, 5 mM 1,4-Dithio-DL-threitol, 0.005% Brij-35, 5 μg/ml sheared salmon sperm DNA, 500 pM E. coli ParC, 500 pM E. coli ParE, 160 μM ATP, and compound in dimethylsulfoxide. An IC50 measurement of compound potency for each compound can be determined from reactions performed in the presence of 10 different compound concentrations.

S. aureus GyrB ATPase = S. aureus GyrB ATPase (Staphylococcus aureus, UniProt P0A0K8); assay: S. aureus GyrB ATPase inhibition (ammonium molybdate/malachite green phosphate detection); assay type: biochemical; conditions: compound concentration of 1 μM; read-out: percent inhibition of S. aureus GyrB ATPase
Method: S. aureus GyrB ATPase Inhibition Activity: Compounds may be tested for inhibition of S. aureus GyrB ATPase activity using an ammonium molybdate/malachite green-based phosphate detection assay (Lanzetta, P. A., L. J. Alvarez, P. S. Reinach, and O. A. Candia, 1979, 100: 95-97). Assays can be performed in multiwell plates in 30 μl reactions containing: 50 mM Hepes buffer pH 7.5, 75 mM ammonium acetate, 8.0 mM magnesium chloride, 0.5 mM ethylenediaminetetraacetic acid, 5% glycerol, 1.0 mM 1,4-Dithio-DL-threitol, 200 nM bovine serum albumin, 1.0 μg/ml sheared salmon sperm DNA, 250 pM E. coli GyrA, 250 pM S. aureus GyrB, 250 μM ATP, and compound in dimethylsulfoxide. Reactions can be quenched with 30 μl of ammonium molybdate/malachite green detection reagent containing 1.2 mM malachite green hydrochloride, 8.5 mM ammonium molybdate tetrahydrate, and 1 M hydrochloric acid. Plates can be read in an absorbance plate reader at 650 nm and percent inhibition values can be calculated using dimethylsulfoxide (2%)-containing reactions as 0% inhibition and EDTA-containing ([…]) reactions as 100% inhibition controls. An IC50 measurement of compound potency for each compound can be determined from reactions performed in the presence of 10 different compound concentrations.

Streptococcus pneumoniae = assay: Bacterial susceptibility testing in liquid media (MIC); assay type: cell-based; conditions: lowest drug concentration able to reduce growth by 80% or more, read-out: MIC against Streptococcus pneumoniae
Source text: Compounds may be tested for antimicrobial activity by susceptibility testing in liquid media. Compounds may be dissolved in dimethylsulfoxide and tested in 10 doubling dilutions in the susceptibility assays. The organisms used in the assay may be grown overnight on suitable agar media and then suspended in a liquid medium appropriate for the growth of the organism. The suspension can be a 0.5 McFarland and a further 1 in 10 dilution can be made into the same liquid medium to prepare the final organism suspension in 100 μL. Plates can be incubated under appropriate conditions at 37° C. for 24 hrs prior to reading. The Minimum Inhibitory Concentration (MIC) may be determined as the lowest drug concentration able to reduce growth by 80% or more.

Chain of E. coli Topoisomerase IV ATPase (P0AFI2 whole entry): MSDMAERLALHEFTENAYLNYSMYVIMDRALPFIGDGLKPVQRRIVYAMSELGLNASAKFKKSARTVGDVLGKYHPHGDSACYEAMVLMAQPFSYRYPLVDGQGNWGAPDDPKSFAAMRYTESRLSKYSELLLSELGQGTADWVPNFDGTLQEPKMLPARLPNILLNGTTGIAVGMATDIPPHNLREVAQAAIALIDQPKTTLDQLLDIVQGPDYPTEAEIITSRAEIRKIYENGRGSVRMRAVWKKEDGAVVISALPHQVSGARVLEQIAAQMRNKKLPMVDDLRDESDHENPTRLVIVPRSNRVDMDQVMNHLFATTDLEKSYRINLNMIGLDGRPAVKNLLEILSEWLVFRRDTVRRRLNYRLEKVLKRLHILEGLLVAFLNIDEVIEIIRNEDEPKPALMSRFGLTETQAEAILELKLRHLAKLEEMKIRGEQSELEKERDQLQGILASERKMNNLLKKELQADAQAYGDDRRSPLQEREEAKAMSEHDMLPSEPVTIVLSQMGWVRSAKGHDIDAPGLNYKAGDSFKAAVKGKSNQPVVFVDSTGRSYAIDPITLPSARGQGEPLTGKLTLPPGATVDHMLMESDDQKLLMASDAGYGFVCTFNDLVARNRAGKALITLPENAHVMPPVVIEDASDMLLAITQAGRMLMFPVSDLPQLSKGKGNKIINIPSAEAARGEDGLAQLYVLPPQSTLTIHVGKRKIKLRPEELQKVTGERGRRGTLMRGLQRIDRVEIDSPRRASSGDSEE
Chain of E. coli Topoisomerase IV ATPase (P20083 whole entry): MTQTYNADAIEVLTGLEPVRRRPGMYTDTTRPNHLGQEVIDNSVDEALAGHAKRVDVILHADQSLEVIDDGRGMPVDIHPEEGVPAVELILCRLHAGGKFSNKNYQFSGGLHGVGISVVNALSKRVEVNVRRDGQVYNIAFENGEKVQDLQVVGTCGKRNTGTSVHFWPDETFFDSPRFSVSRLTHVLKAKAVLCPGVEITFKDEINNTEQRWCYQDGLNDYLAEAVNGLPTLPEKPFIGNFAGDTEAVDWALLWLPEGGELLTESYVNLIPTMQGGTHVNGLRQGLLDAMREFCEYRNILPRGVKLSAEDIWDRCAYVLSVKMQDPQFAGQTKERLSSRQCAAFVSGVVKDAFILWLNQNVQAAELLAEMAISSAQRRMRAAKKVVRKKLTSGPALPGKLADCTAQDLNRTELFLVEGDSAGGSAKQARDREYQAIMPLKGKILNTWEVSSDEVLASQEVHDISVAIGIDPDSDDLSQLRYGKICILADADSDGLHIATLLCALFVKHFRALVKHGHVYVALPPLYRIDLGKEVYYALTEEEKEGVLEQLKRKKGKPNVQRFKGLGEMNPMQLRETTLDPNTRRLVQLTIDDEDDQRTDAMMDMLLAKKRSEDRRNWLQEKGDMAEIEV
Chain of S. aureus GyrB ATPase (P0AES4 whole entry): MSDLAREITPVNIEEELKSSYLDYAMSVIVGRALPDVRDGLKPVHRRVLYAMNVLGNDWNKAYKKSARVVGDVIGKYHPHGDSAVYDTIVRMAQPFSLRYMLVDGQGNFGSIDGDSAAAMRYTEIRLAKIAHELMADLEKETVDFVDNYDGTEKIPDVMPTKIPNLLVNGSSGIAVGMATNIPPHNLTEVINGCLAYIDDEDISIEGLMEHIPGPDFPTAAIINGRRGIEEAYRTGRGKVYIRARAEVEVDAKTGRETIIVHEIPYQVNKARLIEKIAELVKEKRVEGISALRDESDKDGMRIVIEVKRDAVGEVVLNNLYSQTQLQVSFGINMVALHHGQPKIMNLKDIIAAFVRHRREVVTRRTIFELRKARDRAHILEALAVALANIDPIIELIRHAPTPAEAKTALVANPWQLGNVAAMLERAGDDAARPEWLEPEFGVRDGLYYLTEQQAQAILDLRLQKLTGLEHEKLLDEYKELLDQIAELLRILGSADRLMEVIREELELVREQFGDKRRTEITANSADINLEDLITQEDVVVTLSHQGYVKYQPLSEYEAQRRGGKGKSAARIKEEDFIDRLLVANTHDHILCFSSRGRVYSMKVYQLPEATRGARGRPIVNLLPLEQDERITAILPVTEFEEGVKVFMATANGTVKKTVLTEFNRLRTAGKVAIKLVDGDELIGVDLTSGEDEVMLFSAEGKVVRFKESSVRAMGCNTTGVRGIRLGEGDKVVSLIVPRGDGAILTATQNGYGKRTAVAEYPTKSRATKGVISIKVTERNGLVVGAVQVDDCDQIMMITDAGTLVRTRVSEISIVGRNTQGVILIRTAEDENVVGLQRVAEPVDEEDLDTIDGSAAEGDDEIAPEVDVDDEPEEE
Chain of S. aureus GyrB ATPase (P0A0K8 whole entry): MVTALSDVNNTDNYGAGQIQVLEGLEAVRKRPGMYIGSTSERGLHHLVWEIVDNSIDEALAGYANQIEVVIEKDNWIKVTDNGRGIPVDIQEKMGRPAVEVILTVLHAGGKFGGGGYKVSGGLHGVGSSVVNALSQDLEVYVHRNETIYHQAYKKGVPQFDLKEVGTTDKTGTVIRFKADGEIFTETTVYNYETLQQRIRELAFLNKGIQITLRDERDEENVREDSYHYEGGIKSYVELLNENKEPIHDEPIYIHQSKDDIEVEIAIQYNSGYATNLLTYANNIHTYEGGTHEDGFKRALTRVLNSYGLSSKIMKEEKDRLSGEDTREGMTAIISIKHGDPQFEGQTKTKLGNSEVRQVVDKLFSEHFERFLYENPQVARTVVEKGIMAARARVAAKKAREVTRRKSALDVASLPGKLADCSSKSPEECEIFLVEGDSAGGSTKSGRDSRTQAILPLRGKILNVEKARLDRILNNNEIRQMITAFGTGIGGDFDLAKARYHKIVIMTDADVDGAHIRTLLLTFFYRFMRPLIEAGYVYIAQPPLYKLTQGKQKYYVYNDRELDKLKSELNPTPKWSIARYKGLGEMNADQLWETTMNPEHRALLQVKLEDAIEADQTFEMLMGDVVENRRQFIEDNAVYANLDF

CCNC(=O)Nc1cc(C#Cc2ccccn2)c(-c2cncc(-c3n[nH]c(=O)o3)c2)cn1 [Example 1, 1-ethyl-3-(5′-(5-oxo-4,5-dihydro-1,3,4-oxadiazol-2-yl)-4-(pyridin-2-ylethynyl)-3,3′-bipyridin-6-yl)urea]
IC50 (E. coli GyrB ATPase): < 200 µM | IC50 [1]: < 200 µM | inhibition at 1 µM (S. aureus GyrB ATPase): 102% | MIC (Streptococcus pneumoniae): 0.2 µM (≈ 0.0855 µg/mL)
